Reference: patent US11649228B2, “Zinc indicators for cellular imaging” (The Board of Regents of the University of Texas System, priority 2018, dated 2023)

System: MIN-6 β cells
Assay: Confocal imaging of ZIGIR-labeled live β cells
Format: cell-based, mouse
Procedure: To assess ZIGIRs' ability for imaging granular Zn^2+ in living cells, an insulin secreting β cell (MIN-6 cell) was labeled with ZIGIRs. After dye loading (0.5 μM for 15 min) and washing, cells were imaged by confocal laser scanning microscopy (CLSM). […] After raising cellular Zn^2+ level by adding a Zn^2+ ionophore (pyrithione, 10 μM) and Zn^2+ (20 μM), a drastic enhancement of ZIGIR-2 signal was observed. […] Subsequent washout of zinc/pyrithione and addition of a Zn^2+ chelator TPEN depleted cellular Zn^2+ activity and dampened ZIGIR-2 intensity to nearly the background level (FIGS. 6D & 6E). Overall ZIGIR-2 intensity increased about 12-fold going from the low Zn^2+ (TPEN) to the high Zn^2+ state (Zn^2+/pyrithione), with a cell-to-cell variation of 12.04±4.8 fold (mean±SD, N=20 cells).
MIN-6 β cells were cultured as previously described (Li et al., 2011). HEK293 cells were cultured in DMEM medium supplemented with 10% FBS and 1% Penicillin/Streptomycin. T47D cells were cultured in RPMI-1640 medium supplemented with 10% FBS, 0.5% non-essential amino acids, 1 mM sodium pyruvate, 10 μg/mL geneticin and 0.01 mg/mL insulin. H1299 cells were cultured in RPMI-1640 medium supplemented with 10% FBS. All cells were maintained at 37° C. with 5% CO2. For cell imaging, cells were seeded in 35-mm petri dishes with glass bottoms (MatTek) and cultured for ˜24 hours to reach ˜50% confluence. Prior to labeling, cells were washed with a secretion assay buffer (SAB) containing 114 mM NaCl, 4.7 mM KCl, 1.2 mM KH2PO4, 2.5 mM CaCl2, 1.16 mM MgSO4, 3 mM glucose, and 20 mM Hepes (pH 7.4). Cells were then incubated with ZIGIRs (0.5-1 μM) in SAB at 37° C. for 15 min, and washed with SAB before imaging on a Zeiss LSM 780 confocal microscope using 561 nm laser for exciting ZIGIR-2 (Em 570-650 nm) and 514 nm laser for exciting ZIGIR-1 (Em 516-650 nm). LysoTracker Green (ThermoFisher Scientific) was used at 0.4 μM to label acidic organelles and was added to cells <5 min before imaging. […] ZIGIR colocalization with LysoTracker Green was analyzed and quantified with JACoP plugin of ImageJ.

stability of intensity of labeled granules on repetitive imaging (MIN6 cells, imaged every 5 sec over ~30 min): remains stable
Compound: CN(C)c1ccc2c(-c3ccc(NCCN(CCc4ccccn4)Cc4ccccn4)cc3C(=O)[O-])c3ccc(=[N+](C)C)cc-3oc2c1 [ZIGIR-2]
increase of intensity from low Zn^2+ (TPEN) to high Zn^2+ state (Zn^2+/pyrithione) (MIN-6 cells, overall): about 12 fold | increase of intensity from TPEN to Zn^2+/pyrithione, cell-to-cell variation (mean±SD, N=20 cells): 12.04±4.8 fold
